According to patent US20060035317A1, “Effect of treatment with 4,5-dihydroxy-2-cyclopenten-1-one (dhcp) on gene expression and quorum-sensing in bacteria” (priority 2002, published 2006):
Where two headings read alike, the source gives them in different places.

Columns and labels:
E. coli JM83 = details: DHCP 250 μM, Phadtare et al., 2001, cited from earlier work
[1] = test system: E. coli wild-type strain JM83 (gene expression); assay: Primer extension analysis of mRNA levels in DHCP-treated vs control cells; format: cell-based; details: DHCP 250 μM, 8 h
Procedure: FIG. 1 are gels showing the effect of DHCP on the levels of mRNAs. Total RNA was extracted by the hot phenol method as described in the Materials and Methods section of Example 1, and primer extension analysis was carried out with oligonucleotides corresponding to osmY, dps, rpoS, katG, cysK, tehA, zipA, and ompF. Lanes 1 and 2 in each case represent mRNAs isolated from control (untreated) and DHCP treated cells, respectively.
E. coli wild-type strain JM83 [F^− araΔ(lac-proAB) rpsL(str^r)] (Yanisch-Perron et al., 1985) was grown in Luria broth (LB). V. harveyi strains BB152 and BB170 were a gift from Dr. Bonnie Bassler (Princeton University). These strains were grown in AB medium as described previously (Surette et al., 1999).
E. coli cells grown overnight in LB medium were diluted into fresh LB medium. After the growth reached a Klett unit of 50, DHCP was added (250 μM) and growth was further monitored. After growth reached a Klett unit of 90-100, it was diluted 10-fold into a medium containing the same concentration of DHCP as described previously (Phadtare et al., 2001). The cells were harvested after a total of 8 h of incubation with DHCP. […] The total RNA was extracted by the hot phenol method described previously (Sarmientos et al., 1983). It was further purified by RNeasy Minikit (Qiagen) and was then treated with DNase I followed by phenol-chloroform treatment and ethanol precipitation. It was quantified by measuring absorbance at 260 nm. The purity of RNA was confirmed by agarose gel electrophoresis.
The primers used for detection of the respective mRNAs were: Primer 750077, 5′-[…]-3′ (SEQ ID NO:1), that corresponds to the sequence from the 15th to the 8th codon of osmY (Yim et al., 1992); primer 750078, 5′-[…]-3′ (SEQ ID NO:2), that corresponds to the sequence from the 16th to the 9th codon of dps (Altuvia et al., 1994); Primer 979747, 5′-[…]-3′ (SEQ ID NO:3), that corresponds to the region from the 6th codon of rpoS (Takayanagi et al., 1994); primer 956660, 5′-AGT […]-3′ (SEQ ID NO:4), that corresponds to the region from 13th to the 6th codon of katG (Triggs-Raine et al., 1998); primer 3969805, 5′-[…]-3′ (SEQ ID NO:5), that corresponds to the region from 20th to the 13th codon of cysK (Byrne et al., 1988); primer 3969806, 5′-[…]-3′ (SEQ ID NO:6), that corresponds to the region from 13th to the 6th codoh of tehA (Walter et al., 1991); primer 3969807, 5′[…]-3′ (SEQ ID NO:7), that corresponds to the region from 10th to the 3rd codon of zipA (Hale et al., 1997); and primer 7018 5′-[…]-3′ (SEQ ID NO:8), that includes the region encompassing from the first codon of ompF (accession numbers, J01655, M10311 and M10312). The primers were labeled with [γ-^32P] ATP (Du-Pont-New England Nuclear] by using T4 polynucleotide kinase (Gibco BRL). Primer extension was carried out with 5 μg of RNA at 42° C. for 1 h in a final reaction volume of 10 μl, with 50 mM Tris-HCl (pH 8.5), 8 mM MgCl2, 30 mM KCl, 1 mM dithiothreitol, 0.4 pmol of ^32P-labeled primer, 0.5 mM each of the dNTPs, 10 U RNase inhibitor (Boehringer Mannheim) and 6.25 U of reverse transcriptase (Boehringer Mannheim). The products were analyzed on a 6% polyacrylamide gel under denaturing conditions. Quantitation of primer extension products was carried out by direct radioactive measurements.

O=C1C=CC(O)C1O (stereo not shown) [DHCP, 4,5-dihydroxy-2-cyclopenten-1-one]
Growth of E. coli JM83 (E. coli JM83; after 3 h of incubation): severely impaired | Growth of E. coli JM83 (E. coli JM83; after 5 h): stopped growing | Primer extension: ratio of mRNA level DHCP-treated to control ([1]; gene cysK): 18.00 | Primer extension: ratio of mRNA level DHCP-treated to control ([1]; gene dps): 12.00 | Primer extension: ratio of mRNA level DHCP-treated to control ([1]; gene katG): 9.00 | Primer extension: ratio of mRNA level DHCP-treated to control ([1]; gene ompF): 0.06 | Primer extension: ratio of mRNA level DHCP-treated to control ([1]; gene osmY): 15.00 | Primer extension: ratio of mRNA level DHCP-treated to control ([1]; gene rpoS): 4.00 | Primer extension: ratio of mRNA level DHCP-treated to control ([1]; gene tehA): 5.00 | Primer extension: ratio of mRNA level DHCP-treated to control ([1]; gene zipA): 5.00
